Assay results from patent US20070093410A1, “Selective inhibition of proteasomes of tuberculosis and other bacteria” (President and Fellows of Harvard College, priority 2004, published 2007).
Non-standard residues stand in square brackets, D forms with d. Residues, ends and D or L forms follow the SMILES beside them. No end group written: not given here. *: point of attachment. Biotin = O=C1N[C@H]2[C@H](CS[C@H]2CCCCC(=O)*)N1; Nle = CCCC[C@H](N)C(=O)O; Cbz = O=C(OCc1ccccc1)*

Legend:
[1] = tested on: SDS-activated 20S mammalian proteasomes; experiment: bKKQ10KK cleavage by 20S mammalian proteasomes after inactivation of each type of active site; format: biochemical, rabbit; settings: proteasomes pre-treated with inhibitor, then incubated with bKKQ10KK; FIG. 1D
Protocol: (§1) FIGS. 1A-1D depict hydrolysis of bKKQ10KK (SEQ ID NO:5) by the trypsin-like active site of the eukaryotic proteasome. A) 80 μM bKKQ10KK (SEQ ID NO:5) was incubated with mammalian (rabbit) 20S proteasomes with or without PA28αβ, 0.02% SDS. B) 35 μM bKKQ10KK (SEQ ID NO:5) was incubated with yeast wild type and ‘open-gate’ (α3ΔN) proteasomes. C) Mammalian 20S proteasomes were treated with inhibitors specific to each active site. D) After inactivation, the proteasomes were further incubated with bKKQ10KK (SEQ ID NO:5).
(§2) To identify which active site of the proteasome cleaved after bKKQ, inhibitors that selectively block the individual active sites were used. SDS-activated 20S mammalian proteasomes were treated with the irreversible inhibitors, 4-hydroxy-5-iodo-3-nitrophenylacetyl-Leu-Leu-vinyl sulfone (NLVS); (Bogyo et al., supra, incorporated herein by reference in its entirety for all purposes), which is specific for the chymotrypsin-like site; Acetyl-Tyr-Arg-Leu-Asn-vinyl sulfone (SEQ ID NO:20) (Ac-YRLN-VS), which reacts primarily with the trypsin-like site (Nazif et al. (2001) Proc. Natl. Acad. Sci. USA 98:2967, incorporated herein by reference in its entirety for all purposes); or with the reversible inhibitor of the caspase-like site, Z-Pro-norLeu-Asp-aldehyde (Z-PnLD-CHO) (Kisselev et al. (2003) supra, incorporated herein by reference in its entirety for all purposes). The extent of inhibition of the different sites was assayed using fluorogenic substrates specific for each active site. […] After inactivation of each type of active site, the proteasomes were incubated with bKKQ10KK. […] Thus, cleavage after bKKQ was due to the activity of the trypsin-like site, presumably because of the two-lysine residues preceding the initial Q residue.
For 20S proteasomes, 20 mM Hepes (pH 7.5) containing 1 mM dithiothreitol (DTT) was used. For reactions with 26S proteasomes, the buffer also contained 0.5 mM ATP and 2.5 mM MgCl2. All reactions were performed at 37° C. […] The reaction was terminated with 0.4 ml of ice-cold water and fluorescence read at 380 nm excitation and 470 nm emission. […]

[2] = tested on: SDS-activated 20S mammalian proteasomes; experiment: Inhibition of individual active sites of SDS-activated 20S mammalian proteasomes, fluorogenic substrates specific for each active site; format: biochemical, rabbit; settings: sites other than the one the inhibitor is specific for; FIG. 1C
Protocol: as §1, §2

[3] = biological target: T1, archaebacterial 'open-gate' 20S proteasomes (Thermoplasma acidophilum, UniProt P28061); experiment: Hydrolysis of bKKQ20KK by archaebacterial 'open-gate' 20S proteasomes, effect of proteasome inhibitor; format: biochemical; settings: 37° C.
T1 sequence (P28061 9-211): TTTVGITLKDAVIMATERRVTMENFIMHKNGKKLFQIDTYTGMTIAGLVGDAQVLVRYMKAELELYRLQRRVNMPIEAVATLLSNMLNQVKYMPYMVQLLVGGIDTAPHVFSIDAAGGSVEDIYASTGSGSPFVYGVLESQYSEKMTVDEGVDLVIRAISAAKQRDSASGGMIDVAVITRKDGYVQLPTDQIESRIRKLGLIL
Protocol: (§3) FIGS. 4A-4B depict multiple cleavages within the polyQ sequence by archaebacterial proteasomes. A) bKKQ20KK (SEQ ID NO:9) (25 μM) was incubated with 0.6 μg of yeast or 250 ng of archaebacterial ‘open-gate’ 20S particles in a total volume of 50 μl. B) Products generated by the archaebacterial proteasomes were analyzed by MALDI-TOF.
(§4) 20S proteasomes of archaebacteria, e.g., Thermoplasma acidophilum, contain 14 identical active sites, which, though originally classified as “chymotrypsin-like” (Dahlmann et al. (1991) Biomed. Biochim. Acta 50:465, incorporated herein by reference in its entirety for all purposes), were later shown to cleave also after basic and acidic residues (Akopian et al., supra). These “less-specific” active sites were tested to determine if they could degrade within a polyQ sequence. […] It was determined that mutant archaebacterial proteasomes lacking this gate (Δ7α) (Benaroudj et al., supra, incorporated herein by reference in its entirety for all purposes) cleaved polyQ peptides and control peptides at least 17 fold faster than the wild-type particles. […]
(§5) For 20S proteasomes, 20 mM Hepes (pH 7.5) containing 1 mM dithiothreitol (DTT) was used. […] The reaction was terminated with 0.4 ml of ice-cold water and fluorescence read at 380 nm excitation and 470 nm emission.

rabbit 26S proteasomes = experiment: Peptide cleavage by 26S proteasomes (new amino groups, fluorescamine assay); format: biochemical; settings: 35 μM peptide, FIG. 2
Protocol: FIG. 2 graphically depicts rapid cleavage of the flanking RRGRR (SEQ ID NO:6) in Q20RRGRR (SEQ ID NO:7) by eukaryotic proteasomes. 35 μM of each of the following peptides bKKQ10KK (SEQ ID NO:8), bKKQ20KK (SEQ ID NO:9), N-extended-KK-Q20-KK (SEQ ID NO:10), Q20RRGRR (SEQ ID NO:7) and a control 20-mer peptide […] (SEQ ID NO:12), lacking any repeat sequence were incubated with 7.2 μg of rabbit 26S particles in a total volume of 40 μl. New amino groups formed were assayed.
Although 26S proteasomes cleaved these polyQ peptides slowly and only after the initial Q residues, they cleaved a Q20 (SEQ ID NO: 30) sequence with RRGRR (SEQ ID NO:6) at its C-terminus 5 to 6-fold faster than other polyQ peptides (FIG. 2) studied and at similar rates to the 20-mer control peptide (though not as fast as YGGFLRRIRPKLK (SEQ ID NO:29), a 13-mer which is cleaved at least 2 times faster).
For 20S proteasomes, 20 mM Hepes (pH 7.5) containing 1 mM dithiothreitol (DTT) was used. For reactions with 26S proteasomes, the buffer also contained 0.5 mM ATP and 2.5 mM MgCl2. All reactions were performed at 37° C. 5 μl aliquots were withdrawn at different times, 50 μl of 0.2M sodium phosphate (pH 6.8) was added and then mixed vigorously with 50 μl fluorescamine for 3 minutes. The reaction was terminated with 0.4 ml of ice-cold water and fluorescence read at 380 nm excitation and 470 nm emission.

bKKQ10KK (SEQ ID NO:8) = tested on: T2, bKKQ10KK (SEQ ID NO:8)
T2 sequence: KKQQQQQQQQQQKK

bKKQ20KK (SEQ ID NO:9) = tested on: T3, bKKQ20KK (SEQ ID NO:9)
T3 sequence: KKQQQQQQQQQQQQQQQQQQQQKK

yeast 20S proteasomes = experiment: Hydrolysis of bKKQ10KK by yeast wild type and 'open-gate' (α3ΔN) 20S proteasomes; format: biochemical; settings: 35 μM bKKQ10KK; FIG. 1B
Protocol: as §1
To test whether 20S proteasomes could cleave within a polyQ sequence, a peptide containing 10 Q-residues flanked at each end by two lysine residues to enhance solubility (bKKQ10KK) (SEQ ID NO:8) and biotin on the α amino group was initially used as a substrate. […] Similarly, a mutant form (α3ΔN) of the yeast proteasome with an N-terminal deletion in the α3 subunit, which causes ‘gate-opening’, hydrolyzed bKKQ10KK (SEQ ID NO:8), approximately ten-fold faster than the wild-type (FIG. 1B). Thus, entry of this peptide and its cleavage depends on the presence of an ‘open-gate’ in the α-ring. […]
as §5

eukaryotic proteasomes = experiment: Competitive inhibition of hydrolysis of standard fluorogenic substrates by eukaryotic proteasomes; format: biochemical
Excerpt: In contrast to eukaryotic proteasomes, the ancestral particles from the archaebacterium T. acidophilum digested polyQ peptides very rapidly and degraded completely the myoglobin-polyQ fusion protein. Unlike the eukaryotic homologs, these prokaryotic proteasomes contain 14 identical active sites of broad specificity. […] The data presented herein indicate that the trypsin-like sites can cleave after a P1 glutamine if the preceding residue at P2 is a lysine and at P3 a αN-blocked lysine. […] Thus, their failure to degrade polyQ-sequences is due to the inability of their active sites to bind the polyQ repeat, not to the proteasome's unique catalytic mechanism, which is similar in eukaryotic and archaebacterial particles.

[4] = biological target: T1, archaebacterial 'open-gate' 20S proteasomes; experiment: Cleavage of polyQ peptides by archaebacterial 'open-gate' (Δ7α) 20S proteasomes; format: biochemical; settings: half the concentration of the yeast particles, 37° C.
Protocol: as §3, §4, §5

[5] = tested on: T4, Acetyl-Tyr-Arg-Leu-Asn-vinyl sulfone (SEQ ID NO:20)
T4 sequence: YRLN

[6] = tested on: bovine PA 28alpha-beta (Boston Biochem, Inc.)

For “4-hydroxy-5-iodo-3-nitrophenylacetyl-Leu-Leu-vinyl sulfone [NLVS]”, which “reduction of bKKQ10KK cleavage” value [1] is on record?
Its value is “no significant effect”.

What about the “effect on the other two peptidase activities” value (from here on “effect”) [2] of the same compound?
Its value is “without significantly affecting the other two”.

`CC(C)C[C@@H](C=O)NC(=O)[C@H](CC(C)C)NC(=O)[C@H](CC(C)C)NC(=O)OCc1ccccc1` [MG132] (Cbz-Leu-Leu-Leu-aldehyde) was tested. Which “inhibition of bKKQ20KK hydrolysis” value [3] did it give?
The value was “inhibited this process”.

How did the “reduction of bKKQ10KK cleavage” value [1] turn out when `CCCC[C@H](NC(=O)[C@@H]1CCCN1C(=O)OCc1ccccc1)C(=O)N[C@H](C=O)CC(=O)O` [Z-PnLD-CHO, Z-Pro-norLeu-Asp-aldehyde] (Cbz-Pro-[Nle]-Asp-aldehyde) was run?
The value was “no significant effect”.

What about the “effect” value [2] of the same compound?
Its value is “without significantly affecting the other two”.

Which “reduction of bKKQ10KK cleavage” value [1] does the source give for “Acetyl-Tyr-Arg-Leu-Asn-vinyl sulfone (Ac-YRLN-{vinyl sulfone}) [Ac-YRLN-VS]” here?
Its value is “about 70%”.

What about the “effect” value [2] of the same compound?
The value was “without significantly affecting the other two”.

Which “cleavage rate relative to other polyQ peptides” value (rabbit 26S proteasomes) does the source give for “Q20RRGRR: Q20 sequence with RRGRR at its C-terminus (SEQ ID NO:7) (QQQQQQQQQQQQQQQQQQQQRRGRR; Peptide generated by solid-phase peptide synthesis)” here?
The value was 5 to 6 fold.

Which results are given for “archaebacterial 'open-gate' 20S proteasomes (delta7alpha) of Thermoplasma acidophilum”?
rate of peptide cleavage against yeast 'open-gate' 20S proteasomes, 37° C. (bKKQ10KK (SEQ ID NO:8)): cleaved both bKKQ10KK (SEQ ID NO:8) and bKKQ20KK (SEQ ID NO:9) at least 70 times faster than the yeast ‘open-gate’ 20S proteasomes; rate of peptide cleavage against yeast 'open-gate' 20S proteasomes, 37° C. (bKKQ20KK (SEQ ID NO:9)): cleaved both bKKQ10KK (SEQ ID NO:8) and bKKQ20KK (SEQ ID NO:9) at least 70 times faster than the yeast ‘open-gate’ 20S proteasomes

“bKKQ10KK: peptide containing 10 Q-residues flanked at each end by two lysine residues, biotin on the α amino group (SEQ ID NO:8) (Biotin-KKQQQQQQQQQQKK)” was tested. Which “hydrolysis rate by α3ΔN mutant relative to wild-type yeast proteasome” value (yeast 20S proteasomes) did it give?
The value was “approximately ten-fold”.

And the “competitive inhibition of hydrolysis of standard fluorogenic substrates” value (eukaryotic proteasomes)?
Its value is “could not competitively inhibit”.

Which “time to complete consumption of the peptide” value [4] does the source give for “bKKQ20KK: Q20 sequence flanked by two lysine residues on each end and biotin on the α amino group (SEQ ID NO:9) (Biotin-KKQQQQQQQQQQQQQQQQQQQQKK)” here?
The value was no more than 45 min.

What does the source list for rabbit 20S proteasomes?
decrease in the individual peptidase activities (fluorogenic substrates specific for each active site) [5]: Each inhibitor caused an 85%-95% decrease in the individual peptidase activities without significantly affecting the other two; reduction of bKKQ10KK cleavage [5]: Treatment with Ac-YRLN-VS (SEQ ID NO:20) reduced bKKQ10KK (SEQ ID NO:8) cleavage by about 70%; hydrolysis of bKKQ10KK and of standard fluorogenic peptide substrates [6]: Rabbit 20S proteasomes, when purified in their latent state, were inactive against bKKQ10KK (SEQ ID NO:8) (FIG. 1A) or against standard fluorogenic peptide substrates, unless PA28αβ, or 0.02% SDS was added
